Experiments:
[1] = Binding affinity to delta opioid receptor in guinea pig forebrain; parameters: species or system Cavia porcellus
Mus musculus = assay: Antinociceptive activity in sc dosed mouse assessed as attenuation of acetic acid-induced writhing per 10 mins; type: functional

## CC(C)CN1CC[C@]23c4c5ccc(O)c4O[C@H]2C(=O)CC[C@@]3(O)[C@H]1C5
[1]
  Ki: 229 nM
Mus musculus
  Activity: Dose-dependent effect
  ED50: 5.05 mg/kg

## O=C1CC[C@@]2(O)[C@H]3Cc4ccc(O)c5c4[C@@]2(CCN3CC2CC2)[C@H]1O5 [NALTREXONE]
[1]
  Ki: 20.7 nM
